Data reported in the supplement of paper PMC10307832.

Legend:
Assay in all cases: relative viability (nuclei count vs DMSO), 5 days (fraction); higher = more cells survive
[1] = compound: C[C@@]1(C(=O)Nc2ccc(F)nc2)CCCN1c1nc(Nc2cc(C3CC3)n[nH]2)c2cccn2n1 + COc1cccc2cc(-c3nc([C@H]4CC[C@H](C(=O)O)CC4)n4ncnc(N)c34)[nH]c12 [OSI-027] (partner 0.5 µM)
Procedure, shortened: (§1)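 Lung cancer cell lines were pin-tool dosed in 1536-well plates on the day after seeding, with either a lone drug or a fixed anchor-drug dose plus five library-drug doses (not always all listed) in √10 steps. Nuclei were counted on 4× images after 5 days. Relative viability is the ratio of treated-well to vehicle-well nuclei counts, with each value a median of duplicate plates.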

[2] = compound: CC1(C)CNc2cc(NC(=O)c3cccnc3NCc3ccncc3)ccc21 [Motesanib] + Nc1ncn([C@H]2C[C@H](O)[C@@H](CO)O2)c(=O)n1 [Decitabine] (partner 2 µM)
Procedure, shortened: as §1

[3] = compound: CC1(C)CNc2cc(NC(=O)c3cccnc3NCc3ccncc3)ccc21 [Motesanib] + C[C@@H](Oc1cc(-c2cnn(C3CCNCC3)c2)cnc1N)c1c(Cl)ccc(F)c1Cl [Crizotinib] (partner 1 µM)
Procedure, shortened: as §1

[4] = compound: CC1(C)CNc2cc(NC(=O)c3cccnc3NCc3ccncc3)ccc21 [Motesanib] + COc1cccc2cc(-c3nc([C@H]4CC[C@H](C(=O)O)CC4)n4ncnc(N)c34)[nH]c12 [OSI-027] (partner 0.5 µM)
Procedure, shortened: as §1

HCC-15
relative viability ([1]; first compound 0.04 µM): 0.417 | relative viability ([1]; first compound 0.1265 µM): 0.189 | relative viability ([1]; first compound 0.4 µM): 0.305 | relative viability ([1]; first compound 1.265 µM): 0.365 | relative viability ([2]; first compound 0.01 µM): 0.592 | relative viability ([2]; first compound 0.03162 µM): 0.621 | relative viability ([2]; first compound 0.1 µM): 0.648 | relative viability ([2]; first compound 0.3162 µM): 0.81 | relative viability ([2]; first compound 1 µM): 0.69 | relative viability ([3]; first compound 0.01 µM): 0.778 | relative viability ([3]; first compound 0.03162 µM): 0.782 | relative viability ([3]; first compound 0.1 µM): 0.799 | relative viability ([3]; first compound 0.3162 µM): 0.835 | relative viability ([3]; first compound 1 µM): 0.838 | relative viability ([4]; first compound 0.01 µM): 0.693 | relative viability ([4]; first compound 0.03162 µM): 0.65 | relative viability ([4]; first compound 0.1 µM): 0.64 | relative viability ([4]; first compound 0.3162 µM): 0.817 | relative viability ([4]; first compound 1 µM): 0.64

ABC-1
relative viability ([1]; first compound 0.04 µM): 0.382 | relative viability ([1]; first compound 0.1265 µM): 0.285 | relative viability ([1]; first compound 0.4 µM): 0.225 | relative viability ([1]; first compound 1.265 µM): 0.298 | relative viability ([2]; first compound 0.01 µM): 0.825 | relative viability ([2]; first compound 0.03162 µM): 1.03 | relative viability ([2]; first compound 0.1 µM): 1.02 | relative viability ([2]; first compound 0.3162 µM): 0.931 | relative viability ([2]; first compound 1 µM): 1.26 | relative viability ([3]; first compound 0.01 µM): 0.996 | relative viability ([3]; first compound 0.03162 µM): 1.03 | relative viability ([3]; first compound 0.1 µM): 1.26 | relative viability ([3]; first compound 0.3162 µM): 1.14 | relative viability ([3]; first compound 1 µM): 1.32 | relative viability ([4]; first compound 0.01 µM): 0.438 | relative viability ([4]; first compound 0.03162 µM): 0.521 | relative viability ([4]; first compound 0.1 µM): 0.407 | relative viability ([4]; first compound 0.3162 µM): 0.332 | relative viability ([4]; first compound 1 µM): 0.604

LCLC-103H
relative viability ([1]; first compound 0.04 µM): 0.434 | relative viability ([1]; first compound 0.1265 µM): 0.295 | relative viability ([1]; first compound 0.4 µM): 0.268 | relative viability ([1]; first compound 1.265 µM): 0.274 | relative viability ([2]; first compound 0.01 µM): 0.774 | relative viability ([2]; first compound 0.03162 µM): 0.729 | relative viability ([2]; first compound 0.1 µM): 0.833 | relative viability ([2]; first compound 0.3162 µM): 0.815 | relative viability ([2]; first compound 1 µM): 0.759 | relative viability ([3]; first compound 0.03162 µM): 1.13 | relative viability ([3]; first compound 0.1 µM): 0.986 | relative viability ([3]; first compound 0.3162 µM): 1.08 | relative viability ([3]; first compound 1 µM): 1.15 | relative viability ([4]; first compound 0.01 µM): 0.471 | relative viability ([4]; first compound 0.03162 µM): 0.467 | relative viability ([4]; first compound 0.1 µM): 0.465 | relative viability ([4]; first compound 0.3162 µM): 0.429 | relative viability ([4]; first compound 1 µM): 0.466

NCI-H441
relative viability ([1]; first compound 0.04 µM): 0.405 | relative viability ([1]; first compound 0.1265 µM): 0.322 | relative viability ([1]; first compound 0.4 µM): 0.313 | relative viability ([1]; first compound 1.265 µM): 0.328 | relative viability ([2]; first compound 0.01 µM): 0.271 | relative viability ([2]; first compound 0.03162 µM): 0.307 | relative viability ([2]; first compound 0.1 µM): 0.502 | relative viability ([2]; first compound 0.3162 µM): 0.514 | relative viability ([2]; first compound 1 µM): 0.478 | relative viability ([3]; first compound 0.01 µM): 0.596 | relative viability ([3]; first compound 0.03162 µM): 0.785 | relative viability ([3]; first compound 0.1 µM): 1.02 | relative viability ([3]; first compound 0.3162 µM): 0.846 | relative viability ([3]; first compound 1 µM): 0.803 | relative viability ([4]; first compound 0.01 µM): 0.557 | relative viability ([4]; first compound 0.03162 µM): 0.619 | relative viability ([4]; first compound 0.1 µM): 0.608 | relative viability ([4]; first compound 0.3162 µM): 0.577 | relative viability ([4]; first compound 1 µM): 0.547

EPLC-272H
relative viability ([1]; first compound 0.04 µM): 0.301 | relative viability ([1]; first compound 0.4 µM): 0.24 | relative viability ([1]; first compound 1.265 µM): 0.189 | relative viability ([2]; first compound 0.01 µM): 0.37 | relative viability ([2]; first compound 0.03162 µM): 0.371 | relative viability ([2]; first compound 0.1 µM): 0.387 | relative viability ([2]; first compound 0.3162 µM): 0.335 | relative viability ([2]; first compound 1 µM): 0.402 | relative viability ([3]; first compound 0.01 µM): 0.935 | relative viability ([3]; first compound 0.03162 µM): 0.969 | relative viability ([3]; first compound 0.1 µM): 1.05 | relative viability ([3]; first compound 0.3162 µM): 1.04 | relative viability ([3]; first compound 1 µM): 0.944 | relative viability ([4]; first compound 0.01 µM): 0.236 | relative viability ([4]; first compound 0.03162 µM): 0.311 | relative viability ([4]; first compound 0.3162 µM): 0.263 | relative viability ([4]; first compound 1 µM): 0.244
